Target: T1, BbChp
T1 construct: CARF domain (307–528), N-terminal 6xHis
Assay: thermal shift assay (DSF) titration, Tm […] to […] °C
Assay type: binding, Bacteroidales bacterium

`Nc1ncnc2c1ncn2[C@@H]1O[C@@H]2COP(=O)(O)O[C@H]3[C@@H](O)[C@H](n4cnc5c(N)ncnc54)O[C@@H]3COP(=O)(O)O[C@H]3[C@@H](O)[C@H](n4cnc5c(N)ncnc54)O[C@@H]3COP(=O)(O)O[C@H]3[C@@H](O)[C@H](n4cnc5c(N)ncnc54)O[C@@H]3COP(=O)(O)O[C@H]2[C@H]1O` [cA4] was tested, and the Kd was 273 nM.
